Where “and” joins values, the source holds several entries; their conditions need not be identical. Equal entries are not always repeated.

By IC50 is commonly meant the concentration at which inhibition is half-maximal.

This test addresses T1, human HDL scavenger receptor class B type I (SR-BI) (Homo sapiens, UniProt Q8WTV0).
T1 construct: expressed in transfected cells; host or cells: CHO T-REx (CHO-Trex-hSR-B1 cell line)
T1 sequence (Q8WTV0 1-509 isoform Q8WTV0-2): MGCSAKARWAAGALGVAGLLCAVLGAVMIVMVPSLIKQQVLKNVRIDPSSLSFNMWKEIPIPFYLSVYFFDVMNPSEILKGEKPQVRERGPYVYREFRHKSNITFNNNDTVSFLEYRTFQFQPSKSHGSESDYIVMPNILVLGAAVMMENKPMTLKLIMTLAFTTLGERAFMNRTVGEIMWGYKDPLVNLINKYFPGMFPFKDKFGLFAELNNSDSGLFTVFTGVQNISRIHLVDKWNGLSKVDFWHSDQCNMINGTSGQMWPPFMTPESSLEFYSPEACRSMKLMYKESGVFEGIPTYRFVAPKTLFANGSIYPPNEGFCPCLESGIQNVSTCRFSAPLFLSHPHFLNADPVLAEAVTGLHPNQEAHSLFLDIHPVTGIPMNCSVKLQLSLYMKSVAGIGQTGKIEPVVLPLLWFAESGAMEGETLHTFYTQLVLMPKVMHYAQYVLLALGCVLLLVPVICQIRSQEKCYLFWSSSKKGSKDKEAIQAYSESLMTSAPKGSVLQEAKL
The test can be described thus: SR-B1 cellular oxLDL uptake counter screen (CHO-Trex-hSR-B1). It is filed as cell-based. The text has this: To identify small molecule inhibitors of LOX-1 mediated oxLDL uptake we developed a cellular high throughput screening (HTS) assay. Small molecule compounds were screened for their ability to block the uptake of AlexaFluor594 (AF594)-labeled human oxLDL into a CHO-K1 cell line with inducible expression of the human LOX-1 receptor. This readout was visualized and images were quantified by fluorescence microscopy (Fig. 1a). As positive controls, cells without induction of LOX-1 as well as a blocking anti-LOX-1 antibody[29] was used (Fig. 1b). More than one million different compounds were screened. Lead-like compounds (molecular weight above 270 Da) were tested at a concentration of 5 µg/ml, whereas a fragment subset (molecular weight below 270 Da) was tested at a tenfold higher concentration to ensure detection of more weakly active but ligand-efficient fragment-like compounds. Employing a hit criterion of lower than 50% of control, a hit rate of 2.8% was observed (Supplementary Fig. 1). These hits were further confirmed by performing two independent assay runs with fresh compound samples, resulting in a confirmation rate of 80% and a confirmed hit rate of 2.2% (Supplementary Fig. 2). To filter out unspecific or false-positive hits, a counter screen was developed and applied for testing the primary hits[30]–[32]. […]
(In general: The purpose of a counterscreen is to sort out artefacts and off-target activity.)

For the compound `CCCN1C(=O)c2ccc(Cl)cc2Nc2ncccc21` [BI-0115], under “eight independent measurements 1-8, Supplementary Table 2, read-out: IC50 on SR-B1, individual measurements”, the IC50 is 88.8 µM and > 54.2 µM and > 100 µM (4×) and > 172 µM (2×). The “activity in the SR-B1 assay” value (in words) is recorded as “no activity”.
